Results on eight molecules are retold here after ChEMBL document CHEMBL1158456, “Synergistic effect of zanamivir-porphyrin conjugates on inhibition of neuraminidase and inactivation of influenza virus” (J Med Chem, 2009).

Assay [1] deals with Neuraminidase (Influenza A virus) (UniProt B4URF0). In words: Inhibition of influenza A virus A/Vietnam/1194/2004 H5N1 neuraminidase at 40 nM using NA-STAR substrate after 15 mins incubation at room temperature by fluorescent assay relative to control.
Assay [2] has as its system Influenza A virus. In words: Antiviral activity against influenza A virus A/Vietnam/1194/2004 H5N1 infected in MDCK cells assessed as protection against virus-induced cytopathic effect after 48 hrs. It is filed as functional, organism-based.
Assay [3] concerns Influenza A virus (A/Vietnam/1194/2004(H5N1)). In words: Binding affinity to influenza A virus A/Vietnam/1194/2004 H5N1 hemagglutininin to alpha-2,3-sialic acid galactosyl oligomers.
Assay [4] relates to Influenza A virus. In words: Antiviral activity against influenza A virus A/WSN/1933 H1N1 infected in MDCK cells after 3 days by plaque reduction assay. It is filed as functional, organism-based. Conditions: 72 h.
Assay [5] has as its target Neuraminidase (Influenza A virus) (UniProt B4URF0). In words: Inhibition of influenza A virus A/WSN/1933 H1N1 neuraminidase at 10 nM using NA-STAR substrate after 15 mins incubation at room temperature by fluorescent assay relative to control.
The target is the same in assay [6]. In words: Inhibition of influenza A virus A/Vietnam/1194/2004 H5N1 neuraminidase at 10 nM using NA-STAR substrate after 15 mins incubation at room temperature by fluorescent assay relative to control.
Assay [7] has as its system Influenza A virus. In words: Ratio of EC50 for drug to EC50 for zanamivir against influenza A virus A/Vietnam/1194/2004 H5N1 by plaque reduction assay. Type of assay: functional.
Assay [8] relates to Influenza A virus. Put plainly: Antiviral activity against influenza A virus A/WSN/1933 H1N1 infected in MDCK cells assessed as protection against virus-induced cytopathic effect after 48 hrs. Type of assay: functional, organism-based.
Assay [9] concerns Influenza A virus. In words: Inhibition of influenza A virus A/WSN/1933 H1N1-induced hemagglutinination of chicken RBC. Type of assay: functional, organism-based.
The target in assay [10] is Neuraminidase (Influenza A virus) (UniProt B4URF0). Put plainly: Inhibition of influenza A virus A/WSN/1933 H1N1 neuraminidase at 40 nM using NA-STAR substrate after 15 mins incubation at room temperature by fluorescent assay relative to control.
The subject of assay [11] is Influenza A virus. In words: Antiviral activity against influenza A virus A/Vietnam/1194/2004 H5N1 infected in MDCK cells after 3 days by plaque reduction assay. It is filed as functional, organism-based. Conditions: 72 h. (In general: In a plaque reduction assay, fewer plaques than in the control indicate reduced infectivity or spread.)
For assay [12], the system named is Influenza A virus. Put plainly: Antiviral activity against influenza A virus A/WSN/1933 H1N1 infected in MDCK cells assessed as reduction of infectious viral titer at 500 nM incubated for 1 hr under laminar flow hood light before infection measured after 3 days. Type of assay: functional, organism-based.
Assay [13] has as its system Influenza A virus. In words: Antiviral activity against influenza A virus A/WSN/1933 H1N1 infected in MDCK cells assessed as reduction of infectious viral titer at 200 nM incubated for 1 hr measured after 3 days. It is filed as functional. Also noted: scale not given: the % may be the effect or the level left.
In assay [14] the test system is Influenza A virus. In words: Antiviral activity against influenza A virus A/WSN/1933 H1N1 infected in MDCK cells assessed as reduction of infectious viral titer at 40 nM incubated for 1 hr measured after 3 days relative to control. Type of assay: functional. Also noted: scale not given: the % may be the effect or the level left.
For assay [15], the system named is Influenza A virus. In words: Antiviral activity against influenza A virus A/WSN/1933 H1N1 infected in MDCK cells assessed as reduction of infectious viral titer incubated for 1 hr measured after 3 days. Type of assay: functional, organism-based.
Assay [16] concerns Influenza A virus. In words: Antiviral activity against influenza A virus A/WSN/1933 H1N1 infected in MDCK cells assessed as reduction of infectious viral titer at 100 nM incubated for 1 hr under laminar flow hood light before infection measured after 3 days in presence of 10 fold excess zanamivir. Type of assay: functional, organism-based.
Assay [17] deals with Influenza A virus. Put plainly: Antiviral activity against influenza A virus A/WSN/1933 H1N1 infected in MDCK cells assessed as reduction of infectious viral titer at 100 nM incubated for 1 hr under laminar flow hood light before infection measured after 3 days. Type of assay: functional, organism-based.
Assay [18] relates to Influenza A virus. In words: Antiviral activity against influenza A virus A/WSN/1933 H1N1 infected in MDCK cells assessed as reduction of infectious viral titer at 500 nM incubated for 1 hr under laminar flow hood light before infection measured after 3 days in presence of 10 fold excess zanamivir. It is filed as functional, organism-based.
In assay [19] the test system is Influenza A virus. Put plainly: Antiviral activity against influenza A virus A/WSN/1933 H1N1 infected in MDCK cells assessed as reduction of infectious viral titer at 0.4 to 10 uM incubated for 1 hr measured after 3 days relative to control. Type of assay: functional. Set-up: scale not given: the % may be the effect or the level left.
Assay [20] deals with T1, Neuraminidase (Influenza A virus, UniProt B4URF0). Put plainly: Inhibition of influenza A virus A/WSN/1933 H1N1 neuraminidase using NA-STAR substrate after 15 mins incubation at room temperature by fluorescent assay.
Assay [21] concerns the target T1, Neuraminidase. Put plainly: Inhibition of influenza A virus A/Vietnam/1194/2004 H5N1 neuraminidase using NA-STAR substrate after 15 mins incubation at room temperature by fluorescent assay.

Activity calls are given as the source filed them. No cut-off for these calls is given here.

In general, inhibition refers to the relative decrease from the control value, in per cent. By EC50 is commonly meant the concentration needed to bring the measured effect to its halfway point. What is called IC50 is the midpoint of a concentration-inhibition curve.

T1 sequence (B4URF0 whole entry): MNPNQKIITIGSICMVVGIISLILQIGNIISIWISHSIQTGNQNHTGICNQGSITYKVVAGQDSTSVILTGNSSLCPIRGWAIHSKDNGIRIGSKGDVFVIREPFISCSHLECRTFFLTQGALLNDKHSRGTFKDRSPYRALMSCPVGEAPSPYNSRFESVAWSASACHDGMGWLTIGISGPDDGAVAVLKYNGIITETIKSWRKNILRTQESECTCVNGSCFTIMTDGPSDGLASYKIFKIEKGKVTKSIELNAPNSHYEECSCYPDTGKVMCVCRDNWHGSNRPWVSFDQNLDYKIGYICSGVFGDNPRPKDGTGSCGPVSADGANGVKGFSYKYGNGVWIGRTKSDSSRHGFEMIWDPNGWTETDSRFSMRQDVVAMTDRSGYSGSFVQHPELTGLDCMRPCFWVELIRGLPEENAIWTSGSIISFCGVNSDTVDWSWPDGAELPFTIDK
Sequence of Neuraminidase (Influenza A virus) (B4URF0 as listed by the source): as the sequence (B4URF0 whole entry) above

As for `CC(=O)N[C@H]1[C@H]([C@H](OC(=O)NCc2cn(CCOCOc3ccc(-c4c5nc(c(-c6ccc(OCOCCn7cc(CNC(=O)O[C@@H]([C@@H]8OC(C(=O)O)=C[C@H](NC(=N)N)[C@H]8NC(C)=O)[C@H](O)CO)nn7)cc6)c6ccc([nH]6)c(-c6ccc(OCOCCn7cc(CNC(=O)O[C@@H]([C@@H]8OC(C(=O)O)=C[C@H](NC(=N)N)[C@H]8NC(C)=O)[C@H](O)CO)nn7)cc6)c6nc(c(-c7ccc(OCOCCn8cc(CNC(=O)O[C@@H]([C@@H]9OC(C(=O)O)=C[C@H](NC(=N)N)[C@H]9NC(C)=O)[C@H](O)CO)nn8)cc7)c7ccc4[nH]7)C=C6)C=C5)cc3)nn2)[C@H](O)CO)OC(C(=O)O)=C[C@@H]1NC(=N)N`, the inhibition in [1] is 51%; in [5], 24%; in [6], 24%; in [10] it was 51%. For the same molecule, the result in assay [2] and in [8] was Active. Moreover, the outcome in assay [3] and in assay [9] was inactive. Moreover, the EC50 in assay [4] is 2 nM; in assay [11] it was 11 nM. The “Ratio EC50” value in assay [7] is 55.

As for `CC(=O)N[C@H]1[C@H]([C@H](OC(=O)NCc2cn(CCOCCOCCOCCOCCNC(=O)COc3ccc(-c4c5nc(c(-c6ccc(OCC(=O)NCCOCCOCCOCCOCCn7cc(CNC(=O)O[C@@H]([C@@H]8OC(C(=O)O)=C[C@H](NC(=N)N)[C@H]8NC(C)=O)[C@H](O)CO)nn7)cc6)c6ccc([nH]6)c(-c6ccc(OCC(=O)NCCOCCOCCOCCOCCn7cc(CNC(=O)O[C@@H]([C@@H]8OC(C(=O)O)=C[C@H](NC(=N)N)[C@H]8NC(C)=O)[C@@H](O)CO)nn7)cc6)c6nc(c(-c7ccc(OCC(=O)NCCOCCOCCOCCOCCn8cc(CNC(=O)O[C@@H]([C@@H]9OC(C(=O)O)=C[C@H](NC(=N)N)[C@H]9NC(C)=O)[C@H](O)CO)nn8)cc7)c7ccc4[nH]7)C=C6)C=C5)cc3)nn2)[C@H](O)CO)OC(C(=O)O)=C[C@@H]1NC(=N)N`, the outcome in assay [2], in [12], in assay [8] and in [17] was Active. Further, the result in assay [3], in [9], in assay [16] and in assay [18] was inactive. The same molecule had an EC50 in assay [4] of 0.1 nM. For the same molecule, the Activity in assay [13] was greater than 95%; in assay [14], less than 20%; in [15] it was “Dose-dependent effect”; in assay [19], 60%.

For the molecule `CC(=O)N[C@H]1[C@H]([C@H](OC(=O)NCc2cn(CCOCCOCCOCCOCCNC(=O)COc3ccc(-c4c5nc(c(-c6ccc(OCC(=O)NCCOCCOCCOCCOCCn7cc(CNC(=O)O[C@@H]([C@@H]8OC(C(=O)O)=C[C@H](N=C(N)N)[C@H]8NC(C)=O)[C@H](O)CO)nn7)cc6)c6ccc([nH]6)c(-c6ccc(OCC(=O)NCCOCCOCCOCCOCCn7cc(CNC(=O)O[C@@H]([C@@H]8OC(C(=O)O)=C[C@H](N=C(N)N)[C@H]8NC(C)=O)[C@@H](O)CO)nn7)cc6)c6nc(c(-c7ccc(OCC(=O)NCCOCCOCCOCCOCCn8cc(CNC(=O)O[C@@H]([C@@H]9OC(C(=O)O)=C[C@H](N=C(N)N)[C@H]9NC(C)=O)[C@H](O)CO)nn8)cc7)c7ccc4[nH]7)C=C6)C=C5)cc3)nn2)[C@H](O)CO)OC(C(=O)O)=C[C@@H]1N=C(N)N`, the IC50 was determined as 3.7 nM in assay [20] and 7.6 nM in assay [21].

As for `Oc1ccc(-c2c3nc(c(-c4ccc(O)cc4)c4ccc([nH]4)c(-c4ccc(O)cc4)c4nc(c(-c5ccc(O)cc5)c5ccc2[nH]5)C=C4)C=C3)cc1`, the result in [12] and in [17] was inactive.

Molecule `CC(=O)N[C@H]1[C@H]([C@H](OC(=O)NCc2cn(CCOCOc3ccc(-c4c5nc(c(-c6ccc(OCOCCn7cc(CNC(=O)O[C@@H]([C@@H]8OC(C(=O)O)=C[C@H](N=C(N)N)[C@H]8NC(C)=O)[C@H](O)CO)nn7)cc6)c6ccc([nH]6)c(-c6ccc(OCOCCn7cc(CNC(=O)O[C@@H]([C@@H]8OC(C(=O)O)=C[C@H](N=C(N)N)[C@H]8NC(C)=O)[C@H](O)CO)nn7)cc6)c6nc(c(-c7ccc(OCOCCn8cc(CNC(=O)O[C@@H]([C@@H]9OC(C(=O)O)=C[C@H](N=C(N)N)[C@H]9NC(C)=O)[C@H](O)CO)nn8)cc7)c7ccc4[nH]7)C=C6)C=C5)cc3)nn2)[C@H](O)CO)OC(C(=O)O)=C[C@@H]1N=C(N)N` gave an IC50 in assay [20] of 11 nM.

For `CC(=O)N[C@H]1[C@H]([C@H](OC(=O)NCc2cn(CCOCCOCCOCCNC(=O)COc3ccc(-c4c5nc(c(-c6ccc(OCC(=O)NCCOCCOCCOCCn7cc(CNC(=O)O[C@@H]([C@@H]8OC(C(=O)O)=C[C@H](N=C(N)N)[C@H]8NC(C)=O)[C@H](O)CO)nn7)cc6)c6ccc([nH]6)c(-c6ccc(OCC(=O)NCCOCCOCCOCCn7cc(CNC(=O)O[C@@H]([C@@H]8OC(C(=O)O)=C[C@H](N=C(N)N)[C@H]8NC(C)=O)[C@H](O)CO)nn7)cc6)c6nc(c(-c7ccc(OCC(=O)NCCOCCOCCOCCn8cc(CNC(=O)O[C@@H]([C@@H]9OC(C(=O)O)=C[C@H](N=C(N)N)[C@H]9NC(C)=O)[C@H](O)CO)nn8)cc7)c7ccc4[nH]7)C=C6)C=C5)cc3)nn2)[C@H](O)CO)OC(C(=O)O)=C[C@@H]1N=C(N)N`, the IC50 came out at 8.5 nM in assay [20] and 16 nM in assay [21].

With `CC(=O)N[C@H]1[C@H]([C@H](OC(=O)NCc2cn(CCOCCOCCOCCNC(=O)COc3ccc(-c4c5nc(c(-c6ccc(OCC(=O)NCCOCCOCCOCCn7cc(CNC(=O)O[C@@H]([C@@H]8OC(C(=O)O)=C[C@H](NC(=N)N)[C@H]8NC(C)=O)[C@H](O)CO)nn7)cc6)c6ccc([nH]6)c(-c6ccc(OCC(=O)NCCOCCOCCOCCn7cc(CNC(=O)O[C@@H]([C@@H]8OC(C(=O)O)=C[C@H](NC(=N)N)[C@H]8NC(C)=O)[C@H](O)CO)nn7)cc6)c6nc(c(-c7ccc(OCC(=O)NCCOCCOCCOCCn8cc(CNC(=O)O[C@@H]([C@@H]9OC(C(=O)O)=C[C@H](NC(=N)N)[C@H]9NC(C)=O)[C@H](O)CO)nn8)cc7)c7ccc4[nH]7)C=C6)C=C5)cc3)nn2)[C@H](O)CO)OC(C(=O)O)=C[C@@H]1NC(=N)N`, the result in assay [2] and in assay [8] was Active. Moreover, the result in assay [3] and in assay [9] was inactive. The molecule further had an EC50 in [4] of 0.5 nM.

Turning to `CC(=O)N[C@H]1[C@H]([C@H](O)[C@H](O)CO)OC(C(=O)O)=C[C@@H]1NC(=N)N` [ZANAMIVIR], the EC50 in assay [4] turned out to be 11 nM; in assay [11] it was 613 nM. For the same molecule, the result in assay [12] and in assay [17] was inactive.
